The values below are quoted from earlier work in PubChem BioAssay AID1259409 (Chemical Carcinogenesis Research Information System (CCRIS), 2018).

This series has as its system rodent chemically induced tumor inhibition, incidence and multiplicity. In words: CCRIS tumor inhibitor studies.

Consider `C[Se]CCC(N)C(=O)O` (centres undefined), for which the “tumour outcome (control, treated, inhibition, significance)” value is, setting by setting: (Carcinogen: 3'-METHYL-4-DIMETHYLAMINOAZOBENZENE, 55-80-1, Dose [Inhibitor]: 118 UG SELENIUM AS HIGH SELENIUM YEAST/GM IN DIET DAILY STARTING 1 WK PRIOR TO START OF CARCINOGEN TREATMENT AND CONTINU, Route [Inhibitor]: ORAL, Species: RAT, Strain/Sex: SPRAGUE-DAWLEY/MALE, Target Tissue: Type of Lesion: LIVER: ADENOCARCINOMA, Dose [Carcinogen]: 0.05% IN DIET DAILY FOR 8 WK, Promoter: NONE USED) 11/12 (92%), 9/14 (64%), 30%, p 0.04; (Carcinogen: 4-(METHYLNITROSAMINO)-1-(3-PYRIDYL)-1-BUTANONE, 64091-91-4, Dose [Inhibitor]: 0, 3.75 PPM IN DIET FOR 3 WK BEGINNING 1 WK PRIOR TO CARCINOGEN DOSE (STUDY DURATION: 18 WK), Route [Inhibitor]: ORAL, Species: MOUSE, Strain/Sex: STRAIN-A/FEMALE, Target Tissue: Type of Lesion: LUNG: TUMOR, Dose [Carcinogen]: 10 UMOL IN 0.1 ML SALINE ONCE, Promoter: NONE USED) 100%, 96%, 4%, not significant; (Carcinogen: 4-(METHYLNITROSAMINO)-1-(3-PYRIDYL)-1-BUTANONE, 64091-91-4, Dose [Inhibitor]: 0, 3.75 PPM IN DIET FOR 15 WK BEGINNING 1 WK POST CARCINOGEN DOSE (STUDY DURATION: 18 WK), Route [Inhibitor]: ORAL, Species: MOUSE, Strain/Sex: STRAIN-A/FEMALE, Target Tissue: Type of Lesion: LUNG: TUMOR, Dose [Carcinogen]: 10 UMOL IN 0.1 ML SALINE ONCE, Promoter: NONE USED) 100%, 100%, 0%, not significant; (Carcinogen: 7,12-DIMETHYLBENZ[A]ANTHRACENE (DMBA) [57-97-6], Dose [Inhibitor]: 20 UG/D GIVEN 2 WK BEFORE DMBA AND DAILY FOR 1 WK (STUDY DURATION: 120 D), Route [Inhibitor]: ORAL (GAVAGE), Species: RAT, Strain/Sex: WISTAR/FEMALE (12,?)/(12,12), Target Tissue: Type of Lesion: MAMMARY GLAND: CARCINOMA, Dose [Carcinogen]: 12 MG ONCE (STUDY DURATION: 120 D)) 33%, 0%, 100%; (Carcinogen: 7,12-DIMETHYLBENZ[A]ANTHRACENE, 57-97-6, Dose [Inhibitor]: 0, 0.2 PPM IN DIET BEGINNING 3 D PRIOR TO CARCINOGEN DOSE AND CONTINUING FOR 8 MO (STUDY DURATION: 8 MO), Route [Inhibitor]: ORAL, Species: MOUSE, Strain/Sex: BALB/FEMALE, Target Tissue: Type of Lesion: MAMMARY GLAND: ADENOCARCINOMA, Dose [Carcinogen]: 1 MG/WK FOR 6 WK, Promoter: NONE USED) 12/31 (39%), 6/21 (29%), 26%, not calculated; (Carcinogen: 7,12-DIMETHYLBENZ[A]ANTHRACENE, 57-97-6, Dose [Inhibitor]: 0, 2 PPM IN DIET BEGINNING 3 D PRIOR TO CARCINOGEN DOSE AND CONTINUING FOR 8 MO (STUDY DURATION: 8 MO), Route [Inhibitor]: ORAL, Species: MOUSE, Strain/Sex: BALB/FEMALE, Target Tissue: Type of Lesion: MAMMARY GLAND: ADENOCARCINOMA, Dose [Carcinogen]: 1 MG/WK FOR 6 WK, Promoter: NONE USED) 12/31 (39%), 6/23 (26%), 33%, not calculated. Besides, the “tumour outcome (control, treated, inhibition, significance)” value runs as follows: (Carcinogen: AZOXYMETHANE [25843-45-2], Dose [Inhibitor]: 10 PPM IN DIET FOR 56 WK BEGINNING 2 WK PRIOR TO FIRST CARCINOGEN DOSE (STUDY DURATION: 56 WK), Route [Inhibitor]: ORAL, Species: RAT, Strain/Sex: F344/MALE, Target Tissue: Type of Lesion: COLON: ADENOMA OR ADENOCARCINOMA, Dose [Carcinogen]: 15 MG/KG BW 1X/WK FOR 2 WK (STUDY DURATION: 56 WK), Promoter: NONE) 76%, 64%, 16%, not significant; (Carcinogen: AZOXYMETHANE [25843-45-2], Dose [Inhibitor]: 15 PPM IN DIET FOR 56 WK BEGINNING 2 WK PRIOR TO FIRST CARCINOGEN DOSE (STUDY DURATION: 56 WK), Route [Inhibitor]: ORAL, Species: RAT, Strain/Sex: F344/MALE, Target Tissue: Type of Lesion: COLON: ADENOMA OR ADENOCARCINOMA, Dose [Carcinogen]: 15 MG/KG BW 1X/WK FOR 2 WK (STUDY DURATION: 56 WK), Promoter: NONE) 76%, 89%, -17%, not significant; (Carcinogen: N-METHYL-N-NITROSOUREA, 684-93-5, Dose [Inhibitor]: 5 PPM IN DIET DAILY FOR 128 D STARTING 7 D AFTER CARCINOGEN TREATMENT AND CONTINUING FOR DURATION OF STUDY (STUDY DURATI, Route [Inhibitor]: ORAL, Species: RAT, Strain/Sex: SPRAGUE-DAWLEY/FEMALE, Target Tissue: Type of Lesion: MAMMARY GLAND: CARCINOMA, Dose [Carcinogen]: 50 MG/KG BW IN ACIDIFIED SALINE (PH 4.0) ONCE AT AGE 50 D, Promoter: NONE USED) 90%, 95%, -6%, not significant; (Carcinogen: N-METHYL-N-NITROSOUREA, 684-93-5, Dose [Inhibitor]: 6 PPM IN DIET DAILY FOR 128 D STARTING 7 D AFTER CARCINOGEN TREATMENT AND CONTINUING FOR DURATION OF STUDY (STUDY DURATI, Route [Inhibitor]: ORAL, Species: RAT, Strain/Sex: SPRAGUE-DAWLEY/FEMALE, Target Tissue: Type of Lesion: MAMMARY GLAND: CARCINOMA, Dose [Carcinogen]: 50 MG/KG BW IN ACIDIFIED SALINE (PH 4.0) ONCE AT AGE 50 D, Promoter: NONE USED) 90%, 80%, 11%, not significant; (Carcinogen: NONE USED, Dose [Inhibitor]: 1 PPM IN DIET DAILY STARTING AT AGE 13.8 MO AND CONTINUING FOR LIFE (STUDY DURATION: LIFE), Route [Inhibitor]: ORAL, Species: MOUSE, Strain/Sex: C3H/FEMALE, Target Tissue: Type of Lesion: MAMMARY GLAND: ADENOCARCINOMA, Promoter: NONE USED) 20/26 (77%), 12/26 (46%), 40%, p<0.05; (Carcinogen: NONE USED, Dose [Inhibitor]: 1 PPM IN DIET DAILY STARTING AT WEANING AND CONTINUING FOR LIFE (STUDY DURATION: LIFE), Route [Inhibitor]: ORAL, Species: MOUSE, Strain/Sex: C3H/FEMALE, Target Tissue: Type of Lesion: MAMMARY GLAND: ADENOCARCINOMA, Promoter: NONE USED) 20/26 (77%), 7/26 (27%), 65%, p<0.005. Moreover, the “tumour outcome (control, treated, inhibition, significance)” value (Carcinogen: NONE USED, Dose [Inhibitor]: 1 PPM IN DIET DAILY STARTING AT WEANING AND CONTINUING THROUGH AGE 13.8 MO FOL LOWED BY CONTROL DIET FOR LIFE (STUDY DUR, Route [Inhibitor]: ORAL, Species: MOUSE, Strain/Sex: C3H/FEMALE, Target Tissue: Type of Lesion: MAMMARY GLAND: ADENOCARCINOMA, Promoter: NONE USED) is 20/26 (77%), 18/26 (69%), 10%, not significant.
Take `CCN(CC)C(=S)S`: the outcome (Carcinogen: DIETHYLNITROSAMINE, 55-18-5, Dose [Inhibitor]: 0, 50 MG/KG 1/WK FOR 5 WK ADMINISTERED 4 HR POST EACH CARCINOGEN DOSE (STUDY DURATION: 6 MO), Route [Inhibitor]: INTRAPERITONEAL, Species: RAT, Strain/Sex: BD6/FEMALE, Target Tissue: Type of Lesion: ESOPHAGUS: TUMOR, Dose [Carcinogen]: 80 MG/KG BW 1/WK FOR 5 WK, Promoter: NONE USED) is 6%, 77, -1183%, p<0.001. For the same compound, the “tumour outcome (control, treated, inhibition, significance)” value is 44%, 77%, -75%, not significant (Carcinogen: DIETHYLNITROSAMINE, 55-18-5, Dose [Inhibitor]: 0, 50 MG/KG 1/WK FOR 5 WK ADMINISTERED 4 HR POST EACH CARCINOGEN DOSE (STUDY DURATION: 6 MO), Route [Inhibitor]: INTRAPERITONEAL, Species: RAT, Strain/Sex: BD6/FEMALE, Target Tissue: Type of Lesion: LIVER: TUMOR, Dose [Carcinogen]: 80 MG/KG BW 1/WK FOR 5 WK, Promoter: NONE USED); 14%, 94%, -571%, p<0.001 (Carcinogen: DIETHYLNITROSAMINE, 55-18-5, Dose [Inhibitor]: 0, 50 MG/KG 1/WK FOR 5 WK ADMINISTERED 4 HR POST EACH CARCINOGEN TREATMENT (STUDY DURATION: 6 MO), Route [Inhibitor]: INTRAPERITONEAL, Species: RAT, Strain/Sex: BD6/FEMALE, Target Tissue: Type of Lesion: ESOPHAGUS: TUMOR, Dose [Carcinogen]: 80 MG/KG BW 1/WK FOR 5 WK, Promoter: NONE USED); 52%, 44%, 15%, not significant (Carcinogen: DIETHYLNITROSAMINE, 55-18-5, Dose [Inhibitor]: 0, 50 MG/KG 1/WK FOR 5 WK ADMINISTERED 4 HR POST EACH CARCINOGEN TREATMENT (STUDY DURATION: 6 MO), Route [Inhibitor]: INTRAPERITONEAL, Species: RAT, Strain/Sex: BD6/FEMALE, Target Tissue: Type of Lesion: LIVER: TUMOR, Dose [Carcinogen]: 80 MG/KG BW 1/WK FOR 5 WK, Promoter: NONE USED); 52%, 32%, 38%, not significant (Carcinogen: DIETHYLNITROSAMINE, 55-18-5, Dose [Inhibitor]: 0, 50 MG/KG 1/WK FOR 5 WK ADMINISTERED 24 HR POST EACH CARCINOGEN TREATMENT (STUDY DURATION: 6 MO), Route [Inhibitor]: INTRAPERITONEAL, Species: RAT, Strain/Sex: BD6/FEMALE, Target Tissue: Type of Lesion: LIVER: TUMOR, Dose [Carcinogen]: 80 MG/KG BW 1/WK FOR 5 WK, Promoter: NONE USED); 14%, 4%, 71%, not significant (Carcinogen: DIETHYLNITROSAMINE, 55-18-5, Dose [Inhibitor]: 0, 50 MG/KG 1/WK FOR 5 WK ADMINISTERED 24 HR POST EACH CARCINOGEN TREATMENT(STUDY DURATION: 6 MO), Route [Inhibitor]: INTRAPERITONEAL, Species: RAT, Strain/Sex: BD6/FEMALE, Target Tissue: Type of Lesion: ESOPHAGUS: TUMOR, Dose [Carcinogen]: 80 MG/KG BW 1/WK FOR 5 WK, Promoter: NONE USED).
